Each compound was assayed against T1, E-selectin (Homo sapiens, UniProt P16581) (assay: Compound was evaluated for its inhibitory activity against adhesion of HL-60(human promyelocytic leukemia cells) to recombinant human soluble E-selectin (rhsE).).
T1 sequence (P16581 whole entry): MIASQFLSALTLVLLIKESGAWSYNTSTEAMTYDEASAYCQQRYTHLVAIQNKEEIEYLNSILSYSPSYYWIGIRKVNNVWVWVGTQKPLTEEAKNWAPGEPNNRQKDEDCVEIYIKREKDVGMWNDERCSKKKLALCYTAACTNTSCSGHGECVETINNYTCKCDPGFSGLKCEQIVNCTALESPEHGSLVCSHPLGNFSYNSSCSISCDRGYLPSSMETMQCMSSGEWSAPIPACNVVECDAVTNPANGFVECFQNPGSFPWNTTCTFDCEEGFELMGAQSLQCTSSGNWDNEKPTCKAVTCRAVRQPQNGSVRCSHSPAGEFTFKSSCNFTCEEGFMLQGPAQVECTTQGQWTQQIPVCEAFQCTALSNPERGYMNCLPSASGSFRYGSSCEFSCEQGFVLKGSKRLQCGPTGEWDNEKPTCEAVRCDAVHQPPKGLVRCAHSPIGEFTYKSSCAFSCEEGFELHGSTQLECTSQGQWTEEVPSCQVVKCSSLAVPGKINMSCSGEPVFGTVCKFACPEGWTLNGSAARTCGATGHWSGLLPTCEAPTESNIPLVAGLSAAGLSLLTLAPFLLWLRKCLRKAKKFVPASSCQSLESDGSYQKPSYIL

SMILES	IC50 [µM]
COC(=O)N[C@@H]1C(O)C(OC2C(O)[C@H](O[C@@H]3C(CO)O[C@@H](OCCCO[C@@H]4CCC[C@H](OCCCO[C@@H]5OC(CO)[C@@H](O[C@@H]6OC(CO)[C@H](O)C(OC7C(O)[C@@H](NC(=O)OC)C([C@H](O)[C@H](O)CO)O[C@H]7C(=O)O)C6O)C(O[C@@H]6OC(C)[C@H](O)C(O)C6O)C5Nc5ccc6ccccc6c5)C4)C(Nc4ccc5ccccc5c4)C3O[C@@H]3OC(C)[C@H](O)C(O)C3O)OC(CO)[C@@H]2O)[C@H](C(=O)O)OC1[C@H](O)[C@H](O)CO (stereo partly drawn)	41
COC(=O)N[C@@H]1C(O)C(OC2C(O)[C@H](O[C@@H]3C(CO)O[C@@H](OCCCO[C@H]4CCC[C@H](OCCCO[C@@H]5OC(CO)[C@@H](O[C@@H]6OC(CO)[C@H](O)C(OC7C(O)[C@@H](NC(=O)OC)C([C@H](O)[C@H](O)CO)O[C@H]7C(=O)O)C6O)C(O[C@@H]6OC(C)[C@H](O)C(O)C6O)C5Nc5ccc6ccccc6c5)C4)C(Nc4ccc5ccccc5c4)C3O[C@@H]3OC(C)[C@H](O)C(O)C3O)OC(CO)[C@@H]2O)[C@H](C(=O)O)OC1[C@H](O)[C@H](O)CO (stereo partly drawn)	49
CC(=O)N[C@@H]1[C@@H]([C@H](O)[C@H](O)CO)O[C@](O[C@H]2[C@@H](O)[C@@H](O[C@@H]3[C@@H](O[C@H]4O[C@H](C)[C@H](O)[C@@H](O)[C@H]4O)[C@@H](NC(=O)c4ccc5ccccc5c4)[C@@H](OCCc4cccc(CCO[C@@H]5O[C@@H](CO)[C@@H](O[C@@H]6O[C@@H](CO)[C@H](O)[C@H](O[C@]7(C(=O)O)C[C@@H](O)[C@@H](NC(C)=O)[C@H]([C@H](O)[C@H](O)CO)O7)[C@@H]6O)[C@H](O[C@@H]6O[C@@H](C)[C@@H](O)[C@H](O)[C@@H]6O)[C@@H]5NC(=O)c5ccc6ccccc6c5)c4)O[C@@H]3CO)O[C@H](CO)[C@H]2O)(C(=O)O)C[C@@H]1O	60
CCO[C@@H]1O[C@@H](CO)[C@@H](O[C@@H]2O[C@@H](CO)[C@H](O)[C@H](O[C@]3(C(=O)O)C[C@@H](O)[C@@H](NC(C)=O)[C@H]([C@H](O)[C@H](O)CO)O3)[C@@H]2O)[C@H](O[C@@H]2O[C@@H](C)[C@@H](O)[C@H](O)[C@@H]2O)[C@@H]1NC(C)=O	1500
CC(=O)N[C@H]1[C@H]([C@H](O)[C@H](O)CO)O[C@@](O[C@@H]2[C@H](O)[C@H](O[C@H]3[C@H](O[C@@H]4O[C@@H](C)[C@@H](O)[C@H](O)[C@@H]4O)[C@H](NC(=O)c4ccc5ccccc5c4)[C@H](OCCCc4cccc(CCCO)c4)O[C@H]3CO)O[C@@H](CO)[C@@H]2O)(C(=O)O)C[C@H]1O	200

Now those with a lower IC50, led by results:

IC50 [µM]	SMILES
32	CO[C@H]1O[C@@H](O[C@H]2[C@H](O[C@@H]3O[C@@H](C)[C@@H](O)[C@@H](O)[C@@H]3O)[C@@H](NC(=O)c3ccc4ccccc4c3)[C@H](OCCCc3cccc(CCCO[C@@H]4O[C@H](CO)[C@@H](O[C@@H]5O[C@H](OC)[C@H](O)[C@H](O[C@]6(C(=O)O)C[C@H](O)[C@@H](NC(C)=O)[C@H]([C@H](O)[C@H](O)CO)O6)[C@H]5O)[C@H](O[C@@H]5O[C@@H](C)[C@@H](O)[C@@H](O)[C@@H]5O)[C@H]4NC(=O)c4ccc5ccccc5c4)c3)O[C@@H]2CO)[C@H](O)[C@@H](O[C@]2(C(=O)O)C[C@H](O)[C@@H](NC(C)=O)[C@H]([C@H](O)[C@H](O)CO)O2)[C@H]1O
37	CC(=O)N[C@@H]1[C@@H]([C@H](O)[C@H](O)CO)O[C@](O[C@H]2[C@@H](O)[C@@H](O[C@@H]3[C@@H](O[C@H]4O[C@H](C)[C@H](O)[C@@H](O)[C@H]4O)[C@@H](NC(=O)c4ccc5ccccc5c4)[C@@H](OCCCOc4cccc(OCCCO[C@@H]5O[C@@H](CO)[C@@H](O[C@@H]6O[C@@H](CO)[C@H](O)[C@H](O[C@]7(C(=O)O)C[C@@H](O)[C@@H](NC(C)=O)[C@H]([C@H](O)[C@H](O)CO)O7)[C@@H]6O)[C@H](O[C@@H]6O[C@@H](C)[C@@H](O)[C@H](O)[C@@H]6O)[C@@H]5NC(=O)c5ccc6ccccc6c5)c4)O[C@@H]3CO)O[C@H](CO)[C@H]2O)(C(=O)O)C[C@@H]1O
30	CC(=O)N[C@@H]1[C@@H]([C@H](O)[C@H](O)CO)O[C@](O[C@H]2[C@@H](O)[C@@H](O[C@@H]3[C@@H](O[C@H]4O[C@H](C)[C@H](O)[C@@H](O)[C@H]4O)[C@@H](NC(=O)c4ccc5ccccc5c4)[C@@H](OCc4cccc(CO[C@@H]5O[C@@H](CO)[C@@H](O[C@@H]6O[C@@H](CO)[C@H](O)[C@H](O[C@]7(C(=O)O)C[C@@H](O)[C@@H](NC(C)=O)[C@H]([C@H](O)[C@H](O)CO)O7)[C@@H]6O)[C@H](O[C@@H]6O[C@@H](C)[C@@H](O)[C@H](O)[C@@H]6O)[C@@H]5NC(=O)c5ccc6ccccc6c5)c4)O[C@@H]3CO)O[C@H](CO)[C@H]2O)(C(=O)O)C[C@@H]1O

— ChEMBL document CHEMBL1151061, “Synthesis and inhibitory effects of bivalent sialyl lewis X analogs at preventing cell adhesion” (Bioorg Med Chem Lett, 1997)
